The values below come from patent US9249163B2, “PDE10a inhibitors for the treatment of type II diabetes” (Janssen Pharmaceutica, NV, priority 2013, dated 2016).

Structures can show the parent of a compound that is named as a salt.

Test [1] concerns the target Rat recombinant PDE10a (rPDE10a) (Rattus norvegicus (Rat), UniProt Q9QYJ6). The test can be described thus: In vitro assay PDE10a (rat recombinant PDE10a, SPA). The conditions noted are these: 60 nM cAMP, 60 min at rt, read-out: rPDE10a2 IC50. The class given is biochemical. Put shortly: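 Rat PDE10a expressed in Sf9 cells (baculovirus) and Ni-sepharose purified. Incubated with compound for 60 min at rt in 50 mM Tris pH 7.8, 8.3 mM MgCl2, 1.7 mM EGTA with 60 nM cAMP plus 0.008 μCi ^3H-cAMP (final), 1% DMSO. Read-out by PDE SPA bead scintillation counting (cpm), no-enzyme blank.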

Test [2] deals with Human recombinant PDE10A2 (Homo sapiens (Human), UniProt Q9Y233). Description: In vitro hPDE10a (human recombinant PDE10A2, scintillation proximity assay). The class given is biochemical. The conditions noted are these: human recombinant PDE10A2, 60 nM cAMP, 60 min at room temperature; read-out: hPDE10a2 IC50. A general note: In a scintillation proximity assay essentially only radioactivity close to the scintillant gives light.
Chain of Human recombinant PDE10A2 (Q9Y233 267-1055): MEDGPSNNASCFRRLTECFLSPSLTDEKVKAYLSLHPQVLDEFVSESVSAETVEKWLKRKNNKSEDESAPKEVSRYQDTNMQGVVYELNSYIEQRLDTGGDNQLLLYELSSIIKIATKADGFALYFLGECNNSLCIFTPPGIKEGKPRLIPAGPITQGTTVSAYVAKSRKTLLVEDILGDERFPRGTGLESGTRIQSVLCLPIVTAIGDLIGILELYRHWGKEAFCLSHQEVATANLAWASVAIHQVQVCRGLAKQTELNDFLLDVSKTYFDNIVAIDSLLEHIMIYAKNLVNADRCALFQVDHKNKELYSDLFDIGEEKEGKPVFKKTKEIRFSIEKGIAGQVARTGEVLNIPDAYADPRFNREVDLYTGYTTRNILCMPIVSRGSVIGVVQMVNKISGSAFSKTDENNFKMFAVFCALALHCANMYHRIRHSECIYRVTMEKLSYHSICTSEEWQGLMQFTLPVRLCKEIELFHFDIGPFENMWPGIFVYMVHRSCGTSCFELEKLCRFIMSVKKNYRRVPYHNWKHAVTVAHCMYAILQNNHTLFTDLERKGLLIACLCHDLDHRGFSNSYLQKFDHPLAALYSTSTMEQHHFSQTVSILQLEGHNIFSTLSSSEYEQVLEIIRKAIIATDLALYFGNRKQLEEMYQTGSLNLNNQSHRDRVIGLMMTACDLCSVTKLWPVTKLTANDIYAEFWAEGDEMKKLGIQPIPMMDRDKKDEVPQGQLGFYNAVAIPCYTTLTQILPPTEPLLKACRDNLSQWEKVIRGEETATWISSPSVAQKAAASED

Chain of Rat recombinant PDE10a (rPDE10a) (Q9QYJ6 whole entry): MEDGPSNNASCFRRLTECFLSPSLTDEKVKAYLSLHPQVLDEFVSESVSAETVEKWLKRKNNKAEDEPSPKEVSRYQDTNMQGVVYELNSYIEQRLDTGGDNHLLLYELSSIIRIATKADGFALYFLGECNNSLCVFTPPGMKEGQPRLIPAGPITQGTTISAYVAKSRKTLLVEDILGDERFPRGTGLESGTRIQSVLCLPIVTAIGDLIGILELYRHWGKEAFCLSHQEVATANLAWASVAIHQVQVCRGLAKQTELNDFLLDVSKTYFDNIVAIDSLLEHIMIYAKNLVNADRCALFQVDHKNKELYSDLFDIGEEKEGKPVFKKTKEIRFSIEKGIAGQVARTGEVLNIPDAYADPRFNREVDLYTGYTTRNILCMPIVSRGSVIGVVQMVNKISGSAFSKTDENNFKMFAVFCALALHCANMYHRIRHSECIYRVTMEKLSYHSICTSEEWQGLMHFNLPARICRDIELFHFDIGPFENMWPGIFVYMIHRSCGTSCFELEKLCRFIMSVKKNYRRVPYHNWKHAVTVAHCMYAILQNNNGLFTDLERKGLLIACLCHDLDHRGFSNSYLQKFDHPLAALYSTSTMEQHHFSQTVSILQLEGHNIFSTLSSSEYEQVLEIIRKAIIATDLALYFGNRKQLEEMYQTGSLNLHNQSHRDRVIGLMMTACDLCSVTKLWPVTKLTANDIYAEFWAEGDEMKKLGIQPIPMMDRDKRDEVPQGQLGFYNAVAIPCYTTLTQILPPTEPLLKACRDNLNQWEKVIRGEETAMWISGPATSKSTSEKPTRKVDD

Broadly, the IC50 is the midpoint of a concentration-inhibition curve. On to `c1ccc2nc(OCc3cn4c(-c5ccc(-c6nnn[nH]6)cc5)cnc(N5CCOCC5)c4n3)ccc2c1` [Cpd 90, 4-(5-(4-(1H-Tetrazol-5-yl)phenyl)-2-((quinolin-2-yloxy)methyl)imidazo[1,2-a]pyrazin-8-yl)morpholine], for which the figures for the concentration for half-maximal inhibition (IC50) in test [1] and in test [2] were 1 nM and 2 nM, respectively.

As to `Oc1nc2ncc(-c3cnc(N4CCOCC4)c4nc(/C=C/c5ccc6ccccc6n5)cn34)cc2[nH]1` [Cpd 94, (E)-6-(8-Morpholino-2-(2-(quinolin-2-yl)vinyl)imidazo[1,2-a]pyrazin-5-yl)-3H-imidazo[4,5-b]pyridin-2-ol], the IC50 in test [1] came out at 3 nM; in test [2], 8 nM.

As for `C(=C\c1cn2c(-c3ccc(-c4nnn[nH]4)nc3)cnc(N3CCOCC3)c2n1)/c1ccc2ccccc2n1` [Cpd 96, (E)-4-(5-(6-(1H-Tetrazol-5-yl)pyridin-3-yl)-2-(2-(quinolin-2-yl)vinyl)imidazo[1,2-a]pyrazin-8-yl)morpholine], the half-inhibitory concentration (IC50) was under 1 nM in test [1] and 3 nM in test [2].

Regarding `c1ccc2nc(SCc3cn4c(-c5ccc(N6CCNCC6)nc5)cnc(N5CCOCC5)c4n3)ccc2c1` [Cpd 98, 4-(5-(6-(piperazin-1-yl)pyridin-3-yl)-2-((quinolin-2-ylthio)methyl)imidazo[1,2-a]pyrazin-8-yl)morpholine trifluoroacetic acid salt], the IC50 in test [1] amounted to 52 nM; in test [2], 58 nM.

`c1ccc2nc(N3CC(c4cn5c(-c6ccc(N7CCNCC7)nc6)cnc(N6CCOCC6)c5n4)C3)ccc2c1` [Cpd 99, 4-(5-(6-(piperazin-1-yl)pyridin-3-yl)-2-(1-(quinolin-2-yl)azetidin-3-yl)imidazo[1,2-a]pyrazin-8-yl)morpholine]: the IC50 worked out at 204 nM in test [1] and 224 nM in test [2].

Take `c1ccc2nc(OCc3cn4c(-c5ccc(Sc6nnc[nH]6)nc5)cnc(N5CCOCC5)c4n3)ccc2c1` [Cpd 100, 4-(5-(6-((4H-1,2,4-triazol-3-yl)thio)pyridin-3-yl)-2-((quinolin-2-yloxy)methyl)imidazo[1,2-a]pyrazin-8-yl)morpholine]: the 50% inhibitory concentration (IC50) in test [1] worked out at 38 nM; in test [2], 29 nM.

Regarding `O=C(O)Cc1ccc(-c2cnc(N3CCOCC3)c3nc(COc4ccc5ccccc5n4)cn23)cn1` [Cpd 101, 2-(5-(8-Morpholino-2-((quinolin-2-yloxy)methyl)imidazo[1,2-a]pyrazin-5-yl)pyridin-2-yl)acetic acid], the half-maximal inhibitory concentration (IC50) is 20 nM in test [1] and 15 nM in test [2].

`c1ccc2nc(CCc3cn4c(-c5ccc(N6CCNCC6)nc5)cnc(N5CCOCC5)c4n3)ccc2c1` [Cpd 102, 4-(5-(6-(piperazin-1-yl)pyridin-3-yl)-2-(2-(quinolin-2-yl)ethyl)imidazo[1,2-a]pyrazin-8-yl)morpholine trifluoroacetic acid salt]: the values for the IC50 in test [1] and in test [2] were 17 nM and 35 nM, respectively.

In the case of `C(=C\c1ncccn1)/c1cn2c(-c3ccc(N4CCNCC4)nc3)cnc(N3CCOCC3)c2n1` [Cpd 103, (E)-4-(5-(6-(Piperazin-1-yl)pyridin-3-yl)-2-(2-(pyrimidin-2-yl)vinyl)imidazo[1,2-a]pyrazin-8-yl)morpholine], the IC50 in test [1] was 617 nM; in test [2], 676 nM.

Turning to `C(=C\c1ncc2ccccc2n1)/c1cn2c(-c3ccc(N4CCNCC4)nc3)cnc(N3CCOCC3)c2n1` [Cpd 104, (E)-4-(5-(6-(Piperazin-1-yl)pyridin-3-yl)-2-(2-(quinazolin-2-yl)vinyl)imidazo[1,2-a]pyrazin-8-yl)morpholine], the IC50 in test [1] is 68 nM; in test [2] it was 129 nM.

On to `C(=C\c1cn2c(-c3ccc(N4CCNCC4)nc3)cnc(N3CCOCC3)c2n1)/c1ccc2ccccc2n1` [Cpd 105, (E)-4-(5-(6-(piperazin-1-yl)pyridin-3-yl)-2-(2-(quinolin-2-yl)vinyl)imidazo[1,2-a]pyrazin-8-yl)morpholine trifluoroacetic acid salt], for which the figures for the IC50 in test [1] and in test [2] were 22 nM and 50 nM, respectively.

`c1ccc2nc(OCc3cn4c(-c5ccc(C6CCNCC6)nc5)cnc(N5CCOCC5)c4n3)ccc2c1` [Cpd 106, 4-(5-(6-(Piperidin-4-yl)pyridin-3-yl)-2-((quinolin-2-yloxy)methyl)imidazo[1,2-a]pyrazin-8-yl)morpholine trifluoroacetic acid salt]: the 50% inhibitory concentration (IC50) in test [1] was determined as 15 nM; in test [2] it was 89 nM.

Take `C1=C(c2ccc(-c3cnc(N4CCOCC4)c4nc(COc5ccc6ccccc6n5)cn34)cn2)CCNC1` [Cpd 108, 4-(2-((quinolin-2-yloxy)methyl)-5-(1′,2′,3′,6′-tetrahydro-[2,4′-bipyridin]-5-yl)imidazo[1,2-a]pyrazin-8-yl)morpholine methane sulfonic acid salt]: the half-maximal inhibitory concentration (IC50) in test [1] amounted to 23 nM; in test [2] it was 35 nM.

In the case of `COC1CCN(c2ncc(-c3ccc(N4CCNCC4)nc3)n3cc(COc4ccc5ccccc5n4)nc23)CC1` [Cpd 112, 2-((8-(4-Methoxypiperidin-1-yl)-5-(6-(piperazin-1-yl)pyridin-3-yl)imidazo[1,2-a]pyrazin-2-yl)methoxy)quinoline trifluoroacetic acid salt], the figures for the IC50 in test [1] and in test [2] were 95 nM and 89 nM, respectively.

Turning to `CC(=O)N1CCN(c2ncc(-c3ccc(N4CCNCC4)nc3)n3cc(COc4ccc5ccccc5n4)nc23)CC1` [Cpd 113], the half-inhibitory concentration (IC50) in test [1] was found to be 151 nM; in test [2], 224 nM.

Take `c1ccc2nc(C3CN(c4cn5c(-c6ccc(N7CCNCC7)nc6)cnc(N6CCOCC6)c5n4)C3)ccc2c1` [Cpd 114, 4-(5-(6-(piperazin-1-yl)pyridin-3-yl)-2-(3-(quinolin-2-yl)azetidin-1-yl)imidazo[1,2-a]pyrazin-8-yl)morpholine trifluoroacetic acid salt]: the figures for the concentration for half-maximal inhibition (IC50) in test [1] and in test [2] were 2000 nM and 1350 nM, respectively.

For the molecule `O=C1CN(c2ncc(-c3ccc(N4CCNCC4)nc3)n3cc(COc4ccc5ccccc5n4)nc23)CCN1` [Cpd 115, 4-(5-(6-(piperazin-1-yl)pyridin-3-yl)-2-((quinolin-2-yloxy)methyl)imidazo[1,2-a]pyrazin-8-yl)piperazin-2-one trifluoroacetic acid salt], the figures for the IC50 in test [1] and in test [2] were 40 nM and 85 nM, respectively.

For the molecule `c1cnc(OCc2cn3c(-c4ccc(N5CCNCC5)nc4)cnc(N4CCOCC4)c3n2)nc1` [Cpd 116, 4-(5-(6-(piperazin-1-yl)pyridin-3-yl)-2-((pyrimidin-2-yloxy)methyl)imidazo[1,2-a]pyrazin-8-yl)morpholine trifluoroacetic acid salt], the IC50 was 3630 nM in test [1] and 2630 nM in test [2].

Turning to `O=S1(=O)CCN(c2ncc(-c3ccc(N4CCNCC4)nc3)n3cc(COc4ccc5ccccc5n4)nc23)CC1` [Cpd 117, 4-(5-(6-(Piperazin-1-yl)pyridin-3-yl)-2-((quinolin-2-yloxy)methyl)imidazo[1,2-a]pyrazin-8-yl)thiomorpholine 1,1-dioxide trifluoroacetic acid salt], the values for the IC50 in test [1] and in test [2] were 32 nM and 56 nM, respectively.

`OC1CCN(c2ncc(-c3ccc(N4CCNCC4)nc3)n3cc(COc4ccc5ccccc5n4)nc23)CC1` [Cpd 118, 1-(5-(6-(Piperazin-1-yl)pyridin-3-yl)-2-((quinolin-2-yloxy)methyl)imidazo[1,2-a]pyrazin-8-yl)piperidin-4-ol trifluoroacetic acid salt]: the 50% inhibitory concentration (IC50) in test [1] came to 30 nM; in test [2] it was 78 nM.

Consider `c1ccc2nc(OCc3cn4c(-c5ccc(N6CCNCC6)nc5)cnc(-c5ccncc5)c4n3)ccc2c1` [Cpd 120, 2-((5-(6-(Piperazin-1-yl)pyridin-3-yl)-8-(pyridin-4-yl)imidazo[1,2-a]pyrazin-2-yl)methoxy)quinoline trifluoroacetic acid salt], for which the values for the IC50 in test [1] and in test [2] were 15 nM and 20 nM, respectively.

As for `CN1CCN(c2ncc(-c3cnc(N4CCOCC4)c4nc(COc5ccc6ccccc6n5)cn34)cn2)CC1` [Cpd 123, 4-(5-(2-(4-Methylpiperazin-1-yl)pyrimidin-5-yl)-2-((quinolin-2-yloxy)methyl)imidazo[1,2-a]pyrazin-8-yl)morpholine methane sulfonic acid salt], the half-maximal inhibitory concentration (IC50) in test [1] turned out to be 8 nM; in test [2] it was 19 nM.

`c1ccc2nc(OCc3cn4c(-c5ccc(N6CCNCC6)nc5)cnc(N5CCOCC5)c4n3)ncc2c1` [Cpd 124, 4-(5-(6-(Piperazin-1-yl)pyridin-3-yl)-2-((quinazolin-2-yloxy)methyl)imidazo[1,2-a]pyrazin-8-yl)morpholine trifluoroacetic acid salt]: the half-inhibitory concentration (IC50) in test [1] came to 123 nM; in test [2] it was 115 nM.

Regarding `CN(C)c1ccc(-c2cnc(N3CCOCC3)c3nc(COc4ccc5ccccc5n4)cn23)cn1` [Cpd 127, N,N-Dimethyl-5-(8-morpholino-2-((quinolin-2-yloxy)methyl)imidazo[1,2-a]pyrazin-5-yl)pyridin-2-amine methane sulfonic acid salt], the results for the half-inhibitory concentration (IC50) in test [1] and in test [2] were 30 nM and 62 nM, respectively.

For `CN1CCN(c2ccc(-c3cnc(N4CCOCC4)c4nc(COc5ccc6ccccc6n5)cn34)cn2)CC1` [Cpd 130, 4-(5-(6-(4-Methylpiperazin-1-yl)pyridin-3-yl)-2-((quinolin-2-yloxy)methyl)imidazo[1,2-a]pyrazin-8-yl)morpholine], the 50% inhibitory concentration (IC50) in test [1] was 16 nM; in test [2] it was 42 nM.

Regarding `Clc1c(N2CC(c3ccc4ccccc4n3)C2)nc2c(N3CCOCC3)ncc(-c3ccc(N4CCNCC4)nc3)n12` [Cpd 132, 4-(3-Chloro-5-(6-(piperazin-1-yl)pyridin-3-yl)-2-(3-(quinolin-2-yl)azetidin-1-yl)imidazo[1,2-a]pyrazin-8-yl)morpholine trifluoroacetic acid salt], the IC50 came to 871 nM in test [1] and 1620 nM in test [2].
